From US20110191897A1, “Plants Tolerant to HPPD Inhibitor Herbicides” (Bayer CropScience AG, priority 2009, published 2011) come the findings set out here.

The target of test [1] is T1, Arabidopsis thaliana HPPD (SEQ ID No. 10) (Arabidopsis thaliana, UniProt P93836).
T1 construct: made in house; host or cells: E. coli K-12 BL21 (pQE30-AtHPPD)
T1 sequence (P93836 with tags, fused parts or gaps): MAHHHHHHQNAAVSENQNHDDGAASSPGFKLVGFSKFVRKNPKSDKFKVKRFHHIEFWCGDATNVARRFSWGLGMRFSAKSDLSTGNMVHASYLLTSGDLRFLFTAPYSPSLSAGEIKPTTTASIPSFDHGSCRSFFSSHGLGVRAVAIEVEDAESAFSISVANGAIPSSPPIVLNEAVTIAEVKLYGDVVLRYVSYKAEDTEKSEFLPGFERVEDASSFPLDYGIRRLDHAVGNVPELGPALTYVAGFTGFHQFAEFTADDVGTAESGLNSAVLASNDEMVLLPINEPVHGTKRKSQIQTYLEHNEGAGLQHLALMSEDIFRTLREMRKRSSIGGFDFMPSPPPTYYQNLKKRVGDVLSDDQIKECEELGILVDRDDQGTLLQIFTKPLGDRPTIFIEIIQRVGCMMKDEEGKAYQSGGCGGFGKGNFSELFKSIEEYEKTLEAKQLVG
As to the kind of experiment: Spectrophotometric HPPD activity assay in presence of HPPD inhibitors. The format is biochemical. The conditions noted are these: for inhibition at 5 µM: read-out: percentage of inhibition.

In test [2] the target is T2, Blepharisma japonicum HPPD (SEQ ID No. 5) (Blepharisma japonicum, UniProt A8R3H6). Put plainly: biochemical. Particulars: for inhibition at 5 µM: read-out: percentage of inhibition.
Test [3] has as its target T2, Blepharisma japonicum HPPD (SEQ ID No. 5). Put plainly: HPLC assay of HPPD in vitro kinetic properties. The format is biochemical. Here is the method: Km, Vmax, and kcat values for different HPPD enzyme preparations and Ki, K1=Kon, and K−1=Koff for different HPPD inhibitors were determined using a HPLC assay for measurements of HPPD activity. […] All assays were started by the addition of HPPD enzyme to the assay mixture and stopped at a series of times between 0 and 240 s by addition of 200 μl of the reaction mixture to reaction assay tubes containing 20 μl 10% perchloric acid. Precipitated protein was pelleted by a 5 minute centrifugation at 10,000 g. […] A standard set of concentrations of HGA were used to provide a standard curve in order to calibrate the 292 nm absorbance of the HGA peak versus HGA concentration.
For Km and Vmax value determinations the initial rates of the HPPD reaction at different substrate concentrations were determined from plots of HGA formed versus time and fitted to the Michaelis-Menten equation for unireactant enzymes using the ID Business Solutions Ltd. (www.idbs.com) XLfit software suite. For the determination of Ki, K1=Kon, and Ki=Koff values the time-courses of the HPPD reaction at different inhibitor concentrations were fitted to the equations for Mechanism A, competitive inhibition, for tight-binding inhibitors (Cha, S. (1975) Tight-binding inhibitors—I. Kinetic behaviour. Biochemical Pharmacology 24, 2177-2185) using the ID Business Solutions Ltd. XLfit software suite

The test system of test [4] is leaf disks of tobacco plants containing HPPD SEQ ID No. 7 (Blepharisma japonicum). As to the kind of experiment: Leaf disk regeneration on media with HPPD inhibitors. The format is cell-based, Nicotiana tabacum. Set-up: key to the marks not given beside the values. The conditions noted are these: 10^−6 M, 6 weeks. The procedure:
(§1) At the end of the experiments the level of regeneration was evaluated as followed:
(§2) “−” means that the leaf disks looked the same as leaf disk from wild type tobacco plants on media supplemented with the inhibitor mentioned above. “++++” means that the leaf disks looked like the leaf disks from the wild type tobacco plants on media without inhibitor. “+”, “++”, and “+++” indicate regenerated leaf disks were heavily (+), medium (++) and less (+++) affected by the presence of the inhibitors.

For test [5], the system named is T1 tobacco plants carrying FMP37e (kanamycin selected). Put plainly: Glasshouse response to bicyclopyrone, injury classes. Type of test: in vivo, Nicotiana tabacum. The conditions noted are these: 7 DAT. The source says:
(§3) Seeds of wild type tobacco plants and T1 tobacco plants carrying the gene from Blepharisma japonicum FMP37e coding for HPPD were sown on MS media (Murashige and Skoog […]) supplemented with […] kanamycin. After 4 weeks, rooted green plantlets were transferred to soil and grown for 3 weeks in the glasshouse as described above then sprayed with a mixture containing bicyclopyrone (100 g Al/ha), ammonium sulfate and methyl ester raps oil. The plants were classified in two categories based on the phenotype developed in response to the herbicide seven days after the treatment. […] In this case, only plants containing at least one T-DNA were exposed to the herbicidal treatment.

A further test has as its system wild type tobacco plants. The description is as above. Type of test: in vivo, Nicotiana tabacum. The conditions noted are these: WT, 100 g Al/ha, 7 DAT.
From the text: as §3

Test [6] relates to leaf disks of tobacco plants containing HPPD SEQ ID No. 11 (Arabidopsis thaliana). As to the kind of experiment: Leaf disk regeneration on media with HPPD inhibitors. The format is cell-based, Nicotiana tabacum. The conditions noted are these: 10^−6 M, 6 weeks. The procedure:
as §1, §2

The subject of test [7] is tobacco plants with FMP37t-h, PAT and 2mEPSPS (pFCO112). As to the kind of experiment: Glasshouse trial of tobacco with three tolerance genes. Type of test: in vivo, Nicotiana tobacum. Particulars: 9 DAT. Here is the method: A binary vector for tobacco transformation is, for example, constructed with the CaMV35 promoter driving the expression of the gene FMP37t-h (SEQ ID No. 15), with a codon usage optimized for the expression in dicotyledoneous plants and at its 5′ extremity was added a sequence coding for an OTP, and further upstream a sequence TEV (Tobacco etch virus) to improve the stability of the mRNA in plants followed by the CaMV35S terminator. The nucleotide sequence of the gene FMP37t-h is given in SEQ ID No. 15. Additionally, the transformation vector also contains a PAT gene cassette in which the gene is driven by a CaVM35S promoter and followed by a CaMV35S terminator for glufosinate based selection during the transformation process and a 2mEPSPS gene cassette in which the gene is driven by an histone promoter from Arabidopsis to confer tolerance to the herbicide glyphosate to the transformed plants (see FIG. 3 H). The binary vector was called pFCO112. The above vector was used to transform leaf disks obtained from Nicotiana tobacum plants, according to Example 3.
Transgenic tobacco plants were transferred to the greenhouse and treated with glyphosate at a rate of 1121 g Al/ha. Seeds were produced from such tolerant tobacco plants and harvested. These seeds were put on soil to germinate in the glasshouse. Three to four weeks later, 50 plantlets per event were transferred to single pots. Two weeks later, plants of a size 4-6 cm were sprayed either with:
[…] […] Non-transgenic tobacco plants were completely killed by treatment using one or more of the above herbicides.

Test [8] addresses T1, Arabidopsis thaliana HPPD (SEQ ID No. 10). Put plainly: HPLC assay of HPPD in vitro kinetic properties. Type of test: biochemical. Particulars: substrate HPP 10-400 μM, pH 7.8. The procedure:
Km, Vmax, and kcat values for different HPPD enzyme preparations and Ki, K1=Kon, and K−1=Koff for different HPPD inhibitors were determined using a HPLC assay for measurements of HPPD activity. […] All assays were started by the addition of HPPD enzyme to the assay mixture and stopped at a series of times between 0 and 240 s by addition of 200 μl of the reaction mixture to reaction assay tubes containing 20 μl 10% perchloric acid. Precipitated protein was pelleted by a 5 minute centrifugation at 10,000 g.
For Km and Vmax value determinations the initial rates of the HPPD reaction at different substrate concentrations were determined from plots of HGA formed versus time and fitted to the Michaelis-Menten equation for unireactant enzymes using the ID Business Solutions Ltd. (www.idbs.com) XLfit software suite.

Where [9] appears, read: 5.0 × 10^−6M inhibitor (Table 4).
Setting [10] is: substrate HPP 10-400 μM, pH 7.8.

Read-outs that look alike come from different tables or passages of the source.

T2 sequence (A8R3H6 entry or part of it): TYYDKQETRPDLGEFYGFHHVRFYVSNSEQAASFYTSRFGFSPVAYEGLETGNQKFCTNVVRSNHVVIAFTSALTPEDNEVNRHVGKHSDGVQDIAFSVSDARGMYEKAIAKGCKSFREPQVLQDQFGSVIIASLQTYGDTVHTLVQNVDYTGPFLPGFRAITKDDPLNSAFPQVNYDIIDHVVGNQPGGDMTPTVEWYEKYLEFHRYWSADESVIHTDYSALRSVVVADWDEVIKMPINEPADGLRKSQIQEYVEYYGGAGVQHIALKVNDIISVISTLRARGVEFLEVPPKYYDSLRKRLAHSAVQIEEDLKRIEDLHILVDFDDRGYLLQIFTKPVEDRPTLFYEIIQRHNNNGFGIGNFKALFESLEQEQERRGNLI

`Cc1ccc(C(=O)COc2c(C(=O)c3ccc(Cl)c(C)c3Cl)c(C)nn2C)cc1` [Benzofenap]: the IC50 in [1] (read-out: pI50 (converted)) was under 2.51 µM; in test [2] (read-out: pI50 (converted)) it was 3.16 µM. In addition, the inhibition at 5 µM is 90% in [1] and 85% in [2].
Turning to `Cc1ccc(S(=O)(=O)Oc2c(C(=O)c3ccc(Cl)cc3Cl)c(C)nn2C)cc1` [Pyrazolate], the figures for the inhibition at 5 µM in test [1] (setting [9]) and in test [2] were 61% and 0%, respectively. The IC50 is 3.98 µM in test [1] (read-out: pI50 (converted)) and 20 µM in test [2].
`CS(=O)(=O)c1cc(C(F)(F)F)ccc1C(=O)C(C#N)C(=O)C1CC1` (stereo not drawn) [Diketonitrile, 2-cyano-3-cyclopropyl-1-(2-methylsulphonyl-4-trifluoromethylphenyl)-propane-1,3-dione] gave a Ki in test [3] of 6.6 µM. Besides, the inhibition at 5 µM in test [1] (setting [9]) turned out to be 87%.
`COCCOCc1nc(C(F)(F)F)ccc1C(=O)C1=C(O)C2CCC(C2)C1=O` (stereo not drawn) [Bicyclopyrone, 4-hydroxy-3-[[2-[(2-methoxyethoxy)methyl]-6-(trifluoromethyl)-3-pyridinyl]carbonyl]bicyclo[3.2.1]oct-3-en-2-one]: the “level of regeneration of leaf disks” value in [4] is “++++”; in test [6] it was “−”. The “% of tolerant plant” value was 56% in test [5] (line 113, 100 g Al/ha); over 60% in [5] (line 207, 100 g Al/ha); 67% in [5] (line 208, 100 g Al/ha). The “number of plants in Class I (injury: 0-30%)” value in test [5] (line 113, 100 g Al/ha) is recorded as 60; in [5] (line 207, 100 g Al/ha), 65; in [5] (line 208, 100 g Al/ha), 44; in the test with wild type tobacco plants, 0. The “number of plants in Class II (injury: 31-100%)” value in [5] (line 113, 100 g Al/ha) is 78; in test [5] (line 207, 100 g Al/ha), over 100; in test [5] (line 208, 100 g Al/ha) it was 90; with wild type tobacco plants, 12. Moreover, the figures for the IC50 in test [1] and in [2] (read-out: pI50 (converted)) were 6.31 µM and 200 µM, respectively. Moreover, the inhibition at 5 µM in test [1] amounted to 29%; in test [2] it was 0%.
In the case of `O=C(O)CNCP(=O)(O)O` [Glyphosate], in test [7] (line 634, 1121 g AI/ha), the “number of plants in Class I (no injuries)” value (shortened to “number … (no injuries)”) is 10, the “number of plants in Class II (injury: 10-40%)” value (from here on “number … (injury: 10-40%)”) amounted to 0 and the “number of plants in Class III (injury: 41-100%)” value (“number … (injury: 41-100%)” for short) is given as 0. Moreover, in [7] (line 713, 1121 g AI/ha), the “number … (no injuries)” value was 10, the “number … (injury: 10-40%)” value is recorded as 0 and the “number … (injury: 41-100%)” value is reported as 0.
For `O=C(O)C(=O)Cc1ccc(O)cc1` [HPP, para-hydroxyphenylpyruvate], the Km in test [3] (setting [10]) was 83 µM; in test [8] it was 6.3 µM. The Vmax amounted to 0.1 µM in test [3] (setting [10]) and 1.2 µM in test [8].
Turning to `CS(=O)(=O)c1ccc(C(=O)C2C(=O)CCCC2=O)c([N+](=O)[O-])c1` [Mesotrione, 2-[4-(methylsulfonyl)-2-nitrobenzoyl]-1,3-cyclohexanedione], the “level of regeneration of leaf disks” value was “++++” in [4] and “−” in [6]. In test [1], the IC50 is under 2.51 µM. For the same compound, the inhibition at 5 µM in test [1] (setting [9]) was 86%.
Consider `CS(=O)(=O)c1ccc(C(=O)C2C(=O)CCCC2=O)c(Cl)c1COCC1CCCO1` (stereo not drawn) [Tefuryltrione, 2-[2-chloro-4-(methylsulfonyl)-3-[[(tetrahydro-2-furanyl)methoxy]methyl]benzoyl]-1,3-cyclohexanedione], for which, in test [1] (setting [9]), the inhibition at 5 µM worked out at 100%.
As to `Cc1nn(C)c(O)c1C(=O)c1ccc(C(F)(F)F)cc1S(C)(=O)=O` [Pyrasulfotole], the pI50 in test [1] (2 mM HPP, 3 minutes incubation) is 5.4; in [2] (2 mM HPP, 3 minutes incubation), 4.4. Also, the percentage of inhibition in test [1] (setting [9]) was determined as 69%; in test [2] (setting [9]), 0%.
For the compound `CS(=O)(=O)c1ccc(C(=O)C2C(=O)CCCC2=O)c(Cl)c1` [Sulcotrione, 2-[2-chloro-4-(methylsulfonyl)benzoyl]-1,3-cyclohexanedione], in test [1], the IC50 was under 2.51 µM and the inhibition at 5 µM came out at 74%.
Regarding `CP(=O)(O)CCC(N)C(=O)O` (stereo not drawn) [Glufosinate-ammonium], in [7] (line 634, 1000 g AI/ha), the “number … (no injuries)” value is recorded as 10, the “number … (injury: 10-40%)” value was determined as 0 and the “number … (injury: 41-100%)” value turned out to be 0. In test [7] (line 713, 1000 g AI/ha), the “number … (no injuries)” value stood at 10, the “number … (injury: 10-40%)” value is reported as 0 and the “number … (injury: 41-100%)” value is given as 0.
